Experimental data taken from PMC7408072 (Pharmaceutics, 2020).
Peptide text beside a SMILES is read from it. * marks the point of attachment. 5TAMRA = CN(C)c1ccc2c(c1)Oc1cc(N(C)C)ccc1C21OC(=O)c2cc(C(=O)*)ccc21

Legend:
[1] = system: bovine BCECs co-cultured with rat astrocytes; assay: Peptide uptake into endothelial cells and astrocytes by confocal microscopy after fixation (bovine BBB model); type: cell-based; conditions: fixed cells; for peptide uptake in the astrocytes, 3 h: 100 µM peptide applied luminally; for peptide uptake in the astrocytes, 3 h / peptide uptake in the endothelial cells, 3 h: TAMRA fluorescence, confocal microscopy; for peptide uptake in the endothelial cells, 3 h / peptide uptake in the astrocytes, 15 min / peptide uptake in the endothelial cells, 15 min: 100 µM peptide; for peptide uptake in the astrocytes, 15 min / peptide uptake in the endothelial cells, 15 min: confocal microscopy (Figure S3)
Procedure: […] TEER was measured at room temperature using an Endohm 12 cup (World Precision Instruments, Sarasota, FL, USA) connected to a Millicell-ERS device (Millipore, Bedford, MA, USA). TEER was measured before application of the peptides and after each experiment. The bovine model had initial TEER values ranging from 771 to 1332 Ω·cm^2, whereas the mouse model had initial TEER values ranging from 136 to 217 Ω·cm^2.
To visualize the TAMRA-peptide taken up by the endothelial cells and astrocytes, the remaining filters (one per batch) from the permeation study using the in vitro bovine BBB model were prepared for confocal microscopy. After removal of the peptide solutions, the cells were fixed with 3% paraformaldehyde in PBS for 15 min at room temperature with horizontal shaking (90 rpm). The cells were washed thrice with PBS prior to permeabilization in 0.1% Triton X-100 in PBS for 5 min and blocking in 2% BSA in PBS for 30 min at room temperature with horizontal shaking (90 rpm). The filter inserts were cut out, divided into smaller pieces, and transferred to a 48-well plate to stain zonula ocludens-1 (ZO-1) in the BCECs and F-actin in the astrocytes. Filter pieces with BCECs facing upwards were incubated with a primary antibody directed against ZO-1 (1:100 in PBS with 2% BSA; Thermo Fischer Scientific, Bedford, MA, USA, no. 617300) for 2 h at room temperature. Subsequently, the filters were washed thrice for 5 min in PBS with 2% BSA prior to 30 min incubation with an Alexa-488-conjugated secondary antibody (1:100 in PBS with 2% BSA; Thermo Fischer Scientific, Bedford, MA, USA, no. A11008). Filter pieces with astrocytes facing upwards were incubated with Alexa-488-conjugated phalloidin (1:133 in PBS with 2% BSA; Thermo Fischer Scientific, Bedford, MA, USA) for 30 min at room temperature and washed thrice for 5 min in PBS with 2% BSA. The filter pieces were mounted on glass slides under coverslips using Immu-Mount™ mounting media and imaged using single wavelength excitation a Zeiss 510 laser-scanning confocal microscope (Carl Zeiss, Jena, Germany).

[2] = system: bovine BCEC monolayers co-cultured with rat astrocytes; assay: Barrier integrity by transendothelial electrical resistance (TEER); type: cell-based; conditions: 3 h, bovine BBB model; for barrier integrity (TEER before and after peptide application): 100 µM peptide, 37 °C, N = 3, n = 3
Procedure: Transport across bovine or mouse BCEC monolayers co-cultured with rat astrocytes was carried out over 3 h at 37 °C with horizontal shaking (90 rpm). TEER was measured at room temperature using an Endohm 12 cup (World Precision Instruments, Sarasota, FL, USA) connected to a Millicell-ERS device (Millipore, Bedford, MA, USA). TEER was measured before application of the peptides and after each experiment. The bovine model had initial TEER values ranging from 771 to 1332 Ω·cm^2, whereas the mouse model had initial TEER values ranging from 136 to 217 Ω·cm^2.

blood–brain barrier = assay: In vivo two-photon imaging of BBB permeation; conditions: 3 nmol peptide/g body weight via femoral artery, 1 h, mean ± SEM, N = 5; for BBB permeation: AUC of change in TAMRA fluorescence in the brain parenchyma: anesthetized C57BL/6 mice, two-photon imaging; for clearance: AUC of decreased fluorescence in the blood stream: blood vessel ROIs
Procedure: Animals and operational procedure: We used 12–14-week-old C57BL/6 mice (24–26 g) and performed the surgical procedures as described previously. Anesthesia was induced by intraperitoneal (i.p.) injection of xylazine (10 mg/kg body weight; ScanVet, Fredensborg, Denmark) and ketamine (60 mg/kg body weight; MSD Animal Health, København, Denmark), and maintained by supplementary i.p. injections of ketamine (30 mg/kg body weight) every 20–25 min. The trachea was surgically exposed, and a custom-made metal tube inserted into the trachea lumen for mechanical respiration (180–220 μL volume; 190–240 strokes/min) with oxygen-supplemented air (1.5–2 mL/min) using a MiniVent Type 845 ventilator (Harvard Apparatus, Holliston, MA, USA). Catheters were inserted into the femoral vein and the femoral artery. The incisions were closed with surgical staples. After cannulation, the animal was placed in a prone position. The scalp was removed and FeCl3 (0.62 M) administered to clean off the periosteum. The exposed skull was subsequently washed with saline, dried, and attached to a custom-made metal plate using a cyanoacrylate gel (Henkel’s LOCTITE®, Düsseldorf, Germany). The animal head was mounted onto the imaging stage insert and craniotomy performed using a dental drill (7000 rpm; 4 mm lateral and 1 mm posterior to bregma, Ø = 3 mm). The bone flap and dura were carefully removed, and the surface of the brain gently washed with artificial cerebrospinal fluid (120 mM NaCl, 2.8 mM KCl, 1 mM Na2HPO4, 0.876 mM MgCl2, 22 mM NaHCO3, 1.45 mM CaCl2, 2.55 mM glucose, pH 7.4, 37 °C, 5% CO2). We applied 1% type III-A agarose to the brain surface, and a Menzel glass coverslip (4 × 4 mm, 0.08-mm thick; Thermo Fischer Scientific, Bedford, MA, USA) was positioned to seal the major part of the craniotomy, leaving only an opening for the glass microelectrode used in the electrophysiological assessment. The mouse was transferred to the imaging stage. Following the insertion of the glass microelectrode, the anesthesia was switched to α-chloralose administered intravenously at a constant flow of 50 mg/kg body weight/hour. The mouse was left for 25 min for anesthesia equilibration before imaging. During all procedures, the animal was maintained at 37 °C using a YSI-451rectal thermistor probe (E-Z Systems, Palmer, PA, USA) with a TC-1000 Mouse Proportional controlling unit connected to a heating pad (08-13013; CWE Incorporated, Palmer, PA, USA). To ensure optimal animal physiology and level of anesthesia, end-tidal respiratory CO2 was measured using a Capnograph Type 340 (Harvard Apparatus, Holliston, MA, USA), and mean arterial blood pressure was monitored using a BP-1 pressure monitor (World Precision Instruments, Sarasota, FL, USA).
Imaging of BBB permeation: TAMRA-Tat, TAMRA-Tat-NR2B9c, and TAMRA-Tat-N-dimer were administered as 60 µL bolus injections via the catheter inserted into the femoral artery (3 nmol/g body weight). […] The imaging was performed using an SP5 upright laser scanning microscope equipped with a 20 × 1.0 N.A. water-immersion objective (Leica Microsystems, Wetzlar, Germany). Images were obtained in a hyperstack mode, i.e., in a series of Z-stacks in 1-min intervals. Each Z-stack underwent a reduction of dimensionality (maximum signal intensity projection along the Z-axis). TAMRA and FITC were excited with a Millennia Pro MaiTai HP Ti:Sapphire two-photon laser (Spectra Physics, Santa Clara, CA, USA) tuned to 870 nm. The signal was acquired by two multi-alkali NDD photomultipliers after 525–560 and 560–625 nm band pass filters for FITC-dx and TAMRA fluorescence, respectively. Data were exported from LAS AF software (v. 4.4, Leica Microsystems, Wetzlar, Germany) to ImageJ v. 1.48u4 (NIH).

Row | SMILES | peptide uptake in the astrocytes, 3 h [1] | peptide uptake in the endothelial cells, 3 h [1] | barrier integrity (TEER before and after peptide application) [2] | BBB permeation: AUC of change in TAMRA fluorescence in the brain parenchyma (blood–brain barrier) [F/F0 min] | clearance: AUC of decreased fluorescence in the blood stream (blood–brain barrier) [F/F0 min] | peptide uptake in the astrocytes, 15 min [1] | peptide uptake in the endothelial cells, 15 min [1] | barrier integrity (TEER) upon co-application of FITC-dextran with peptide ([2]; 1 mg/mL FITC-dextran with 100 µM peptide)
1 | CC[C@H](C)[C@H](NC(=O)[C@H](CO)NC(=O)[C@H](CO)NC(=O)[C@H](CC(C)C)NC(=O)[C@H](CCCCN)NC(=O)c1ccc2c(c1)C(=O)OC21c2ccc(N(C)C)cc2Oc2cc(N(C)C)ccc21)C(=O)N[C@@H](CCC(=O)O)C(=O)N[C@@H](CO)C(=O)N[C@@H](CC(=O)O)C(=O)N[C@H](C(=O)O)C(C)C [TAMRA-NR2B9c] (5TAMRA-KLSSIESDV-OH) | not observed | not observed | did not affect the barrier integrity | – | – | – | – | –
2 | CC[C@H](C)[C@H](NC(=O)CCOCCOCCN(CCOCCOCCC(=O)N[C@H](C(=O)N[C@@H](CCC(=O)O)C(=O)N[C@H](C(=O)N[C@@H](CC(=O)O)C(=O)N[C@H](C(=O)O)C(C)C)[C@@H](C)O)[C@@H](C)CC)C(=O)[C@H](CCCNC(=N)N)NC(=O)[C@H](CCCNC(=N)N)NC(=O)[C@H](CCCNC(=N)N)NC(=O)[C@H](CCC(N)=O)NC(=O)[C@H](CCCNC(=N)N)NC(=O)[C@H](CCCNC(=N)N)NC(=O)[C@H](CCCCN)NC(=O)[C@H](CCCCN)NC(=O)[C@H](CCCNC(=N)N)NC(=O)CNC(=O)[C@H](Cc1ccc(O)cc1)NC(=O)c1ccc2c(c1)C(=O)OC21c2ccc(N(C)C)cc2Oc2cc(N(C)C)ccc21)C(=O)N[C@@H](CCC(=O)O)C(=O)N[C@H](C(=O)N[C@@H](CC(=O)O)C(=O)N[C@H](C(=O)O)C(C)C)[C@@H](C)O [TAMRA-Tat-N-dimer] | not in the astrocytes | low level | did not affect the barrier integrity | 6.90 ± 3.90 | −15.02 ± 0.55 | not in the astrocytes | Minor uptake | did not affect barrier integrity
3 | CC[C@H](C)[C@H](NC(=O)[C@H](CO)NC(=O)[C@H](CO)NC(=O)[C@H](CC(C)C)NC(=O)[C@H](CCCCN)NC(=O)[C@H](CCCNC(=N)N)NC(=O)[C@H](CCCNC(=N)N)NC(=O)[C@H](CCCNC(=N)N)NC(=O)[C@H](CCC(N)=O)NC(=O)[C@H](CCCNC(=N)N)NC(=O)[C@H](CCCNC(=N)N)NC(=O)[C@H](CCCCN)NC(=O)[C@H](CCCCN)NC(=O)[C@H](CCCNC(=N)N)NC(=O)CNC(=O)[C@H](Cc1ccc(O)cc1)NC(=O)c1ccc2c(c1)C(=O)OC21c2ccc(N(C)C)cc2Oc2cc(N(C)C)ccc21)C(=O)N[C@@H](CCC(=O)O)C(=O)N[C@@H](CO)C(=O)N[C@@H](CC(=O)O)C(=O)N[C@H](C(=O)O)C(C)C [TAMRA-Tat-NR2B9c] (5TAMRA-YGRKKRRQRRRKLSSIESDV-OH) | observed in both cell types | observed in both cell types | significant decrease in TEER | 5.54 ± 2.95 | −4.97 ± 1.26 | uptake | uptake | –
4 | CN(C)c1ccc2c(c1)Oc1cc(N(C)C)ccc1C21OC(=O)c2cc(C(=O)N[C@@H](Cc3ccc(O)cc3)C(=O)NCC(=O)N[C@@H](CCCNC(=N)N)C(=O)N[C@@H](CCCCN)C(=O)N[C@@H](CCCCN)C(=O)N[C@@H](CCCNC(=N)N)C(=O)N[C@@H](CCCNC(=N)N)C(=O)N[C@@H](CCC(N)=O)C(=O)N[C@@H](CCCNC(=N)N)C(=O)N[C@@H](CCCNC(=N)N)C(=O)N[C@@H](CCCNC(=N)N)C(=O)O)ccc21 [TAMRA-Tat] | observed in both cell types | observed in both cell types | significant decrease in TEER | 32.21 ± 10.17 | −17.85 ± 1.71 | uptake | uptake | –
